Assay results: PubChem BioAssay AID1918956 (Molecular Pharmacology Branch, DTP, NCI, 2023)
Where “and” joins values, the source holds several entries; their conditions need not be identical. Identical values can stand only once.

Test system: OVCAR-5 complex spheroids, viability
Assay: Anticancer human tumor OVCAR-5 cell line growth inhibition;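 also: spheroids exposed to agents for seven days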;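 as to viability, T/C: 100% = DMSO vehicle control wells viability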
Conditions: for viability, T/C: stronger effect = lower value
Method in brief: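 Multicellular complex spheroids of tumor cells with human endothelial cells (HUVEC) and mesenchymal stem cells; the LSD1 inhibitor iadademstat was combined with standard-of-care or investigational agents. Top concentration at or near clinical Cmax, half-log dilutions; final DMSO ≤0.25%.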

[1] = curve of first compound, second compound 0.1 µM
[2] = curve of first compound, second compound 0.316 µM
[3] = curve of first compound, second compound 1 µM
[4] = curve of first compound, second compound 3.16 µM
[5] = curve of first compound, second compound 10 µM

## COc1cc(C2c3cc4c(cc3C(OC3OC5COC(C)OC5C(O)C3O)C3COC(=O)C23)OCO4)cc(OC)c1O (centres undefined) + NC1CCC(NC2CC2c2ccccc2)CC1
[1]
  IC50: 836 nM
[2]
  IC50: 763 nM
[3]
  IC50: 890 nM
[4]
  IC50: 737 nM
[5]
  IC50: 712 nM
Second compound 0.1 µM, first compound 0.00949 µM
  viability, T/C: 113%
Second compound 0.1 µM, first compound 0.03 µM
  viability, T/C: 105%
Second compound 0.1 µM, first compound 0.0949 µM
  viability, T/C: 100%
Second compound 0.1 µM, first compound 0.3 µM
  viability, T/C: 73.5%
Second compound 0.1 µM, first compound 0.949 µM
  viability, T/C: 45.6%
Second compound 0.1 µM, first compound 3 µM
  viability, T/C: 41.4%
Second compound 0.316 µM, first compound 0.00949 µM
  viability, T/C: 106%
Second compound 0.316 µM, first compound 0.03 µM
  viability, T/C: 106%
Second compound 0.316 µM, first compound 0.0949 µM
  viability, T/C: 100%
Second compound 0.316 µM, first compound 0.3 µM
  viability, T/C: 71%
Second compound 0.316 µM, first compound 0.949 µM
  viability, T/C: 43.6%
Second compound 0.316 µM, first compound 3 µM
  viability, T/C: 43.9%
Second compound 1 µM, first compound 0.00949 µM
  viability, T/C: 98.7%
Second compound 1 µM, first compound 0.03 µM
  viability, T/C: 106%
Second compound 1 µM, first compound 0.0949 µM
  viability, T/C: 103%
Second compound 1 µM, first compound 0.3 µM
  viability, T/C: 76.7%
Second compound 1 µM, first compound 0.949 µM
  viability, T/C: 50%
Second compound 1 µM, first compound 3 µM
  viability, T/C: 44.2%
Second compound 3.16 µM, first compound 0.00949 µM
  viability, T/C: 99.9%
Second compound 3.16 µM, first compound 0.03 µM
  viability, T/C: 105%
Second compound 3.16 µM, first compound 0.0949 µM
  viability, T/C: 103%
Second compound 3.16 µM, first compound 0.3 µM
  viability, T/C: 70.9%
Second compound 3.16 µM, first compound 0.949 µM
  viability, T/C: 42.8%
Second compound 3.16 µM, first compound 3 µM
  viability, T/C: 45.4%
Second compound 10 µM, first compound 0.00949 µM
  viability, T/C: 89.4%
Second compound 10 µM, first compound 0.03 µM
  viability, T/C: 93%
Second compound 10 µM, first compound 0.0949 µM
  viability, T/C: 82.9%
Second compound 10 µM, first compound 0.3 µM
  viability, T/C: 67.7%
Second compound 10 µM, first compound 0.949 µM
  viability, T/C: 42.5%
Second compound 10 µM, first compound 3 µM
  viability, T/C: 40.9%

## CC[C@@]1(O)C(=O)OCc2c1cc1n(c2=O)Cc2cc3c(CN(C)C)c(O)ccc3nc2-1
Compound 0.000316 µM
  viability, T/C: 102% and 99%
Compound 0.001 µM
  viability, T/C: 93% and 93.4%
Compound 0.00316 µM
  viability, T/C: 57% and 47.1%
Compound 0.01 µM
  viability, T/C: 46.6% and 31.7%
Compound 0.0316 µM
  viability, T/C: 47.1% and 34.3%
Compound 0.1 µM
  viability, T/C: 24% and 18.9%
Curve of compound
  IC50: 8.81 nM and 2.98 nM

## Nc1ccn(C2OC(CO)C(O)C2(F)F)c(=O)n1 (centres undefined)
Compound 0.000949 µM
  viability, T/C: 27.5% and 26.9%
Compound 0.003 µM
  viability, T/C: 29.6% and 29.3%
Compound 0.00949 µM
  viability, T/C: 29.2% and 28.1%
Compound 0.03 µM
  viability, T/C: 28.8% and 29.1%
Compound 0.0949 µM
  viability, T/C: 30.1% and 28.8%
Compound 0.3 µM
  viability, T/C: 29.1% and 28.3%
Curve of compound
  IC50: < 0.949 nM

## CC1COCCN1c1cc(-c2ccnn2C)c2ccnc(-c3ccn[nH]3)c2n1 (centres undefined) + NC1CC1c1ccc(-c2cccc(O)c2)cc1
[1]
  IC50: 31.6 nM
[2]
  IC50: 33 nM
[3]
  IC50: 24.6 nM
[4]
  IC50: 25.2 nM
[5]
  IC50: 19.9 nM
Second compound 0.1 µM, first compound 0.00316 µM
  viability, T/C: 98.8%
Second compound 0.1 µM, first compound 0.01 µM
  viability, T/C: 79.8%
Second compound 0.1 µM, first compound 0.0316 µM
  viability, T/C: 49%
Second compound 0.1 µM, first compound 0.1 µM
  viability, T/C: 35.6%
Second compound 0.1 µM, first compound 0.316 µM
  viability, T/C: 31.7%
Second compound 0.1 µM, first compound 1 µM
  viability, T/C: 27.9%
Second compound 0.316 µM, first compound 0.00316 µM
  viability, T/C: 105%
Second compound 0.316 µM, first compound 0.01 µM
  viability, T/C: 79.1%
Second compound 0.316 µM, first compound 0.0316 µM
  viability, T/C: 49.6%
Second compound 0.316 µM, first compound 0.1 µM
  viability, T/C: 36.5%
Second compound 0.316 µM, first compound 0.316 µM
  viability, T/C: 30.4%
Second compound 0.316 µM, first compound 1 µM
  viability, T/C: 27.9%
Second compound 1 µM, first compound 0.00316 µM
  viability, T/C: 91.3%
Second compound 1 µM, first compound 0.01 µM
  viability, T/C: 72.8%
Second compound 1 µM, first compound 0.0316 µM
  viability, T/C: 42.3%
Second compound 1 µM, first compound 0.1 µM
  viability, T/C: 33.4%
Second compound 1 µM, first compound 0.316 µM
  viability, T/C: 27.3%
Second compound 1 µM, first compound 1 µM
  viability, T/C: 25.8%
Second compound 3.16 µM, first compound 0.00316 µM
  viability, T/C: 88.9%
Second compound 3.16 µM, first compound 0.01 µM
  viability, T/C: 75.1%
Second compound 3.16 µM, first compound 0.0316 µM
  viability, T/C: 43%
Second compound 3.16 µM, first compound 0.1 µM
  viability, T/C: 32.8%
Second compound 3.16 µM, first compound 0.316 µM
  viability, T/C: 31.1%
Second compound 3.16 µM, first compound 1 µM
  viability, T/C: 25.3%
Second compound 10 µM, first compound 0.00316 µM
  viability, T/C: 95.9%
Second compound 10 µM, first compound 0.01 µM
  viability, T/C: 62.1%
Second compound 10 µM, first compound 0.0316 µM
  viability, T/C: 42.5%
Second compound 10 µM, first compound 0.1 µM
  viability, T/C: 30.4%
Second compound 10 µM, first compound 0.316 µM
  viability, T/C: 31.3%
Second compound 10 µM, first compound 1 µM
  viability, T/C: 26%
